Entries after “also recorded” stand apart in the source; their conditions may differ.
Experiments:
[1] = Time to death by slow intravenous infusion of strychnine; type: in vivo, mouse; settings: for mean infusion time to cause animals to die: strychnine infusion 0.25 ml/min
Experimental: (3) continuous intravenous infusion at constant rate (0.4 ml/min) of a strychnine sulfate solution (26.66 mg/l) was carried out by injection through a tail vein into mice until they died. One group of animals received 500 mg/kg of AP-28 as preliminary treatment 15 minutes prior to the beginning of infusion. The mean infusion time to cause six control animals to die was 134 ± 3.2 seconds (mean ± SE). The mean infusion time required to obtain the same effect in animals pretreated with AP-28 was 210 ± 6.1 seconds.
In another experiment the infusion rate of strychnine was lowered to 0.25 ml/min. Under this condition, the mean infusion time was 246 ± 3.1 seconds in the case of controls (six animals) and 338 ± 24.3 seconds in that of treated animals.
When the same infusion rate as above was maintained and the amount of AP-28 was reduced to 250 mg/kg, the mean infusion time was 260 ± 13.4 seconds with control animals and 360 ± 21.2 seconds with treated animals.

[2] = Enhancement of the hypnotic effect of sodium pentobarbital; type: in vivo, mouse
Experimental: Forty mg/kg of sodium pentobarbital was injected intraperitoneally into mice and note was taken of animals losing the righting reflex and for how long. Other mice received a preliminary treatment with AP-28 at a dosage of 250 and 500 mg/kg, intraperitoneally, and thereafter sodium pentobarbital was given to them.

[3] = Clinical trial, 1st group: insomnia; type: in vivo, human; settings: 400-600 mg one dose at night, 5 to 15 days; seven patients
Experimental: (§1) Clinical trials were performed on three groups of patients, partly hospitalized patients and partly outpatients. It was determined that the effect observed in the experimental pharmacological studies were useful in the treatment of humans as well.
Seven patients complaining of insomnia were treated for a period of time varying from 5 to 15 days. The daily dose was 400-600 mg given as one dose at night.

[4] = Clinical trial, 3rd group: essential epilepsy; type: in vivo, human; settings: 0.500 to 1.500 g daily, 10 to 30 days
Experimental: as §1
Four patients suffering from essential epilepsy were treated for periods of time varying between 10 and 30 days with daily doses ranging from 0.500 to 1.500 g. […] In the fourth patient it was possible to lower the anti-epileptic massive therapy they had been following for some time, and on which they were maintained throughout this study, by more than 50%.

[5] = Influence on amphetamine-induced hypermobility; type: in vivo, mouse; settings: d-amphetamine sulfate 5 mg/kg i.p. + AP-28 250 mg/kg i.p. 15 minutes later
Experimental: Six groups of 4 mice each were treated with 5 mg/kg d-amphetamine sulfate by intraperitoneal administration. Six groups of 4 animals each received the same dose of d-amphetamine sulfate plus 250 mg/kg of AP-28 intraperitoneally 15 minutes after d-amphetamine sulfate; six more groups of four animals each received saline solution and served as control animals. […] The number of times each animal crossed the light beam throughout the 10-minute test was noted.

[6] = Arterial blood pressure; type: in vivo; settings: single 500 mg/kg oral dose
Experimental: (§2) The effect of a single 500 mg/kg oral dose of AP-28 was determined on (a) diuresis in water-loaded rats, (b) choleresis, (c) the excretion rate of intravenously-injected bromosulfonphthalein in bile, (d) arterial blood pressure.

[7] = Spontaneous mobility (light beam interruptions); type: in vivo, mouse
Experimental: Several groups of four mice each were placed in an apparatus designed to provide a measure of spontaneous mobility by counting the number of interruptions of a light beam for a period of 10 minutes. After preliminary measurement of mobility, animals were injected with AP-28 (250 and 500 mg/kg) intraperitoneally. Control animals received saline solution. Ten minutes thereafter the measurement of mobility was repeated. Five groups of mice were used as controls and six other groups were treated with varying doses of AP-28.

[8] = Acute toxicity of AP-28 in the rat; type: in vivo, rat (Wistar-Morini Strain); settings: for Died/treated: in 24 hours; for Remarks: oral
Experimental: AP-28 was administered to adult rats (Wistar-Morini Strain) of both sexes after fasting overnight. It was administered in an aqueous 1-percent suspension of tragacanth gum orally by gastric probe or intraperitoneally.

[9] = Avoidance reflex in conditioned mice; type: in vivo, mouse; settings: control 53.3 ± 4.5 sec
Description: A conditioning cage was constructed of two chambers with free access between chambers. The floor of one compartment was electrified to make it possible to deliver a mild shock. Mice were conditioned by first giving a warning signal and then after a short period of time the shock was applied. Eventually the mice learned to leave the electrified compartment after the warning bell sounded and they were then judged to be conditioned. The average period of time, in this experiment, for control animals (4) to leave the compartment was 53.3 ± 4.5 sec. Four conditioned mice were administered AP-28 intraperitoneally with 250 mg/kg and their time was 60.6 ± 3.9 sec. Four more conditioned mice treated with 500 mg/kg of AP-28 required 77.5 ± 2.7 sec. to clear the compartment.

[10] = Diuresis in water-loaded rats; type: in vivo, rat
Experimental: as §2

[11] = AP-28 250 + sodium pentobarbital 40 mg/kg i.p.
[12] = AP-28 500 + sodium pentobarbital 40 mg/kg i.p.
[13] = oral (gastric probe), 250 mg/kg
[14] = oral (gastric probe), 500 mg/kg
[15] = oral (gastric probe), 1000 mg/kg
[16] = oral (gastric probe), 1500 mg/kg
[17] = oral (gastric probe), 2000 mg/kg

## CCCCOC(=O)NC1CCOC1=O (stereo not drawn) [AP-28, α-n-butoxycarbonyl-amino-γ-butyrolactone]
[1]; AP-28 250 mg/kg, control 260 ± 13.4
  mean infusion time to cause animals to die: 360 ± 21.2 s
[1]; AP-28 500 mg/kg, 15 minutes prior, strychnine infusion 0.4 ml/min, control 134 ± 3.2
  mean infusion time to cause animals to die (mean ± SE): 210 ± 6.1 s
[1]; AP-28 500 mg/kg, control 246 ± 3.1
  mean infusion time to cause animals to die: 338 ± 24.3 s
[2]; [11]
  Animals under hypnosis/treated: 4/4
  Duration of hypnosis in minutes (m ± SE): 52.5 ± 13 min
[2]; [12]
  Animals under hypnosis/treated: 4/4
  Duration of hypnosis in minutes (m ± SE): 75.2 ± 21.6 min
[3]
  effects on awakening (blunting or grogginess): no blunting or grogginess of their minds when they woke up; also recorded: no apparent effects on awakening
[4]
  lowering of anti-epileptic massive therapy, fourth patient: more than 50%
[5]
  Mean number of crossings (± SE) in 10 minutes: 836 ± 100
[6]
  arterial blood pressure: No treatment caused any significant change
[7]; 250 mg/kg i.p.
  Percent reduction at 2nd measurement: 68.1%
  mobility, percent of the baseline values: 31.9%
[7]; 500 mg/kg i.p.
  Percent reduction at 2nd measurement: 76.9%
  mobility, percent of the baseline values: 23.1%
[7]; after treatment, 250 mg/kg i.p.
  Mean number of crossings (± SE): 84.1 ± 15
[7]; after treatment, 500 mg/kg i.p.
  Mean number of crossings (± SE): 50.5 ± 5
[7]; before treatment, 250 mg/kg i.p. group
  Mean number of crossings (± SE): 261.5 ± 25
[7]; before treatment, 500 mg/kg i.p. group
  Mean number of crossings (± SE): 229 ± 15
[8]; highest oral dose
  loss of the righting reflex: did not cause the loss of the righting reflex
[8]; i.p., 250 mg/kg
  Remarks: sedated for: about 15 minutes
  Under hypnosis/treated (loss of the righting reflex): 0/4
  Died/treated: 0/4
[8]; i.p., 500 mg/kg
  Remarks: sedated for: about 20 minutes
  Under hypnosis/treated (loss of the righting reflex): 0/4
  Died/treated: 0/4
[8]; i.p., 1 g/kg
  loss of the righting reflex: the loss of the righting reflex occurred
[8]; i.p., 1000 mg/kg
  Remarks: under hypnosis for: about 15 minutes
  Under hypnosis/treated (loss of the righting reflex): 4/4
  Died/treated: 0/4
[8]; i.p., 1500 mg/kg
  Remarks: under hypnosis for: about 30 minutes
  Under hypnosis/treated (loss of the righting reflex): 4/4
  Died/treated: 0/4
[8]; i.p., 2000 mg/kg
  Remarks: under hypnosis for: about 60 minutes
  Under hypnosis/treated (loss of the righting reflex): 4/4
  Died/treated: 0/4
[8]; laboratory animals, summary statement
  toxicity: toxicity is nearly negligible
[8]; [13]
  Under hypnosis/treated (loss of the righting reflex): 0/4
  Died/treated: 0/4
[8]; [14]
  Under hypnosis/treated (loss of the righting reflex): 0/4
  Died/treated: 0/4
[8]; [15]
  Under hypnosis/treated (loss of the righting reflex): 0/4
  Died/treated: 0/4
[8]; [16]
  Under hypnosis/treated (loss of the righting reflex): 0/4
  Died/treated: 0/4
[8]; [17]
  Under hypnosis/treated (loss of the righting reflex): 0/4
  Died/treated: 0/4
[8]; 250 mg/kg
  Remarks: No particular effect
[8]; 500 mg/kg
  Remarks: did not cause any particular effect
[8]; 1000 mg/kg
  Remarks: Slightly sedated; also recorded: a mild sedative effect
[8]; 1500 mg/kg
  Remarks: Sedated
[8]; 2000 mg/kg (highest oral dose), 2000 mg/kg
  Remarks: produced a sedative effect; also recorded: Very sedated
[8]; rat
  duration of sedative and hypnotic effects: not long lasting and the animal returned to normal
[8]; rat, oral or intraperitoneal
  LD0: more than 2 g/kg
[9]; 250 mg/kg i.p.
  time to leave the electrified compartment: 60.6 ± 3.9 s
[9]; 500 mg/kg i.p.
  time to leave the electrified compartment: 77.5 ± 2.7 s
[10]; 500 mg/kg oral daily for 5 subsequent days
  rate of urine excretion: the rate of urine excretion was slowed
[10]; single 500 mg/kg oral dose
  diuresis: No treatment caused any significant change
